ChEMBL document CHEMBL3352775, “Identification of substituted 3-hydroxy-2-mercaptocyclohex-2-enones as potent inhibitors of human lactate dehydrogenase” (Bioorg Med Chem Lett, 2014)

Experiments:
[1] = target: T1, L-lactate dehydrogenase A chain (Homo sapiens, UniProt P00338); experiment: Inhibition of human recombinant carboxy-terminal His-tagged LDHA by UV endpoint assay
[2] = target: L-lactate dehydrogenase B chain (Homo sapiens, UniProt P07195)
Description: Inhibition of human recombinant carboxy-terminal His-tagged LDHB by UV endpoint assay

[3] = target: T1, L-lactate dehydrogenase A chain; experiment: Inhibition of human recombinant carboxy-terminal His-tagged LDHA by SPR assay

L-lactate dehydrogenase B chain, sequence (P07195 whole entry): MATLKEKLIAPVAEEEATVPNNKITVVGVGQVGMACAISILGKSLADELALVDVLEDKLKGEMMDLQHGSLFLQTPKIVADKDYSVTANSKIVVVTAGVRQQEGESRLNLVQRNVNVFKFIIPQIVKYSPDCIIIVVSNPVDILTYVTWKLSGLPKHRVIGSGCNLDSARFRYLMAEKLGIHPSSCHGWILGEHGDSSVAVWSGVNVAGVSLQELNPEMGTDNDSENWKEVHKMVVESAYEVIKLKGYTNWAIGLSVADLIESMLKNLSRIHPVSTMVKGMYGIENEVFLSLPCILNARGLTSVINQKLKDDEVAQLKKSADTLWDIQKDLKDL

Row | IC50 [1] | IC50 [2] | Kd [3] | SMILES
1 | > 100 µM | – | – | NC(=O)c1ccccc1SC1=C(O)CC(c2ccccc2)CC1=O (stereo not drawn)
2 | > 100 µM | – | – | COC(=O)CCSC1=C(O)CC(c2ccccc2)CC1=O (stereo not drawn)
3 | > 100 µM | – | – | Cc1csc(SC2=C(O)CC(c3ccccc3)CC2=O)n1 (stereo not drawn)
4 | > 100 µM | – | – | CCOC(=O)c1cnc(SC2=C(O)CC(c3ccccc3)CC2=O)nc1N (stereo not drawn)
5 | > 100 µM | – | – | Nc1nnc(SC2=C(O)CC(c3ccccc3)CC2=O)s1 (stereo not drawn)
6 | > 100 µM | – | – | O=C1CC(c2ccccc2)CC(O)=C1SCc1ccc(Cl)cc1Cl (stereo not drawn)
7 | > 100 µM | – | – | Cc1ccnc(SC2=C(O)CC(c3ccccc3)CC2=O)n1 (stereo not drawn)
8 | > 100 µM | – | – | Cc1ccccc1CSC1=C(O)CC(c2ccccc2)CC1=O (stereo not drawn)
9 | > 100 µM | – | – | COc1ccc(SC2=C(O)CC(c3ccccc3)CC2=O)cc1 (stereo not drawn)
10 | > 100 µM | – | – | COc1cccc(SC2=C(O)CC(c3ccccc3)CC2=O)c1 (stereo not drawn)
11 | > 100 µM | – | – | Cc1nnc(SC2=C(O)CC(c3ccccc3)CC2=O)s1 (stereo not drawn)
12 | > 100 µM | – | – | O=C1CC(c2ccccc2)CC(O)=C1Sc1ncccn1 (stereo not drawn)
13 | > 100 µM | – | – | O=C1CC(c2ccccc2)CC(O)=C1Sc1ccc(O)cc1 (stereo not drawn)
14 | > 100 µM | – | – | O=C1CC(c2ccccc2)CC(O)=C1Sc1ccc(C(=O)O)cc1 (stereo not drawn)
15 | > 100 µM | – | – | CC(=O)Nc1ccc(SC2=C(O)CC(c3ccccc3)CC2=O)cc1 (stereo not drawn)
16 | > 100 µM | – | – | Cc1cccc(SC2=C(O)CC(c3ccccc3)CC2=O)c1 (stereo not drawn)
17 | > 100 µM | – | – | O=C1CC(c2ccccc2)CC(O)=C1Sc1nccs1 (stereo not drawn)
18 | > 100 µM | – | – | O=C1CC(c2ccccc2)CC(O)=C1Sc1ncc[nH]1 (stereo not drawn)
19 | > 100 µM | – | – | O=C1CC(c2ccccc2)CC(O)=C1Sc1nncs1 (stereo not drawn)
20 | > 100 µM | – | – | O=C1CC(c2ccccc2)CC(O)=C1Sc1ccccc1O (stereo not drawn)
21 | > 100 µM | – | – | O=C1CC(c2ccccc2)CC(O)=C1SC1CCCCC1 (stereo not drawn)
22 | > 100 µM | – | – | Cc1ccccc1SC1=C(O)CC(c2ccccc2)CC1=O (stereo not drawn)
23 | > 100 µM | – | – | COC(=O)CSC1=C(O)CC(c2ccccc2)CC1=O (stereo not drawn)
24 | > 100 µM | – | – | Cc1ccc(SC2=C(O)CC(c3ccccc3)CC2=O)cc1 (stereo not drawn)
25 | > 100 µM | – | – | COc1ccccc1SC1=C(O)CC(c2ccccc2)CC1=O (stereo not drawn)
26 | > 100 µM | – | – | O=C1CC(c2ccccc2)CC(O)=C1Sc1ccc(Cl)cc1 (stereo not drawn)
27 | > 100 µM | – | – | O=C1CC(c2ccccc2)CC(O)=C1Sc1cccc(Cl)c1F (stereo not drawn)
28 | > 100 µM | – | – | O=C1CC(c2ccccc2)CC(O)=C1Sc1ccccn1 (stereo not drawn)

Row | IC50 [1] | IC50 [2] | Kd [3] | SMILES
29 | > 100 µM | – | – | Cc1ccc(SC2=C(O)CC(c3ccccc3)CC2=O)c(C)c1 (stereo not drawn)
30 | > 100 µM | – | – | Cc1ccc(CSC2=C(O)CC(c3ccccc3)CC2=O)cc1 (stereo not drawn)
31 | > 100 µM | – | – | COc1ccc(CSC2=C(O)CC(c3ccccc3)CC2=O)cc1 (stereo not drawn)
32 | > 100 µM | – | – | O=C1CC(c2ccccc2)CC(O)=C1Sc1cccc(Cl)c1 (stereo not drawn)
33 | > 100 µM | – | – | CSc1nnc(SC2=C(O)CC(c3ccccc3)CC2=O)s1 (stereo not drawn)
34 | > 100 µM | – | – | CC(C)C(C)SC1=C(O)CC(c2ccccc2)CC1=O (stereo not drawn)
35 | > 100 µM | – | – | Cc1cccc(Cl)c1SC1=C(O)CC(c2ccccc2)CC1=O (stereo not drawn)
36 | > 100 µM | – | – | Cc1cnc(SC2=C(O)CC(c3ccccc3)CC2=O)nc1O (stereo not drawn)
37 | > 100 µM | – | – | Cc1cccc(CSC2=C(O)CC(c3ccccc3)CC2=O)c1 (stereo not drawn)
38 | > 100 µM | – | – | O=C1CC(c2ccccc2)CC(O)=C1SCc1ccccc1 (stereo not drawn)
39 | > 100 µM | – | – | CC(C)SC1=C(O)CC(c2ccccc2)CC1=O (stereo not drawn)
40 | > 100 µM | – | – | Cc1cccc(C)c1SC1=C(O)CC(c2ccccc2)CC1=O (stereo not drawn)
41 | > 100 µM | – | – | CCc1ccccc1SC1=C(O)CC(c2ccccc2)CC1=O (stereo not drawn)
42 | > 100 µM | – | – | O=C1CC(c2ccccc2)CC(O)=C1Sc1c(Cl)cccc1Cl (stereo not drawn)
43 | > 100 µM | – | – | Cc1cc(C)nc(SC2=C(O)CC(c3ccccc3)CC2=O)n1 (stereo not drawn)
44 | > 100 µM | – | – | NC(=O)c1cccc(SC2=C(O)CC(c3ccccc3)CC2=O)c1 (stereo not drawn)
45 | > 100 µM | – | – | O=C1CC(c2ccccc2)CC(O)=C1Sc1cccs1 (stereo not drawn)
46 | 36 µM | – | – | O=C1CC(c2ccccc2)CC(O)=C1Sc1ccccc1CO (stereo not drawn)
47 | > 100 µM | – | – | O=C1CC(c2ccccc2)CC(O)=C1Sc1ccccc1 (stereo not drawn)
48 | > 100 µM | – | – | CCc1ccc(SC2=C(O)CC(c3ccccc3)CC2=O)cc1 (stereo not drawn)
49 | > 100 µM | – | – | CCC(C)CSC1=C(O)CC(c2ccccc2)CC1=O (stereo not drawn)
50 | 63 µM | – | – | O=C1CC(c2ccccc2)CC(O)=C1Sc1cccc(Cl)c1Cl (stereo not drawn)
51 | > 100 µM | – | – | O=C1CC(c2ccccc2)CC(O)=C1Sc1ccc(Cl)c(Cl)c1 (stereo not drawn)
52 | > 100 µM | – | – | O=C1CC(c2ccccc2)CC(O)=C1SCc1ccc(F)cc1 (stereo not drawn)
53 | > 100 µM | – | – | O=C1CC(c2ccccc2)CC(O)=C1Sc1ccccc1C(=O)O (stereo not drawn)
54 | > 100 µM | – | – | COC(=O)c1ccccc1SC1=C(O)CC(c2ccccc2)CC1=O (stereo not drawn)
55 | > 100 µM | – | – | O=C1CC(c2ccccc2)CC(O)=C1SCCO (stereo not drawn)

Further lines, the compound ahead of its results:

Row | SMILES | IC50 [1] | IC50 [2] | Kd [3]
56 | O=C1CC(c2ccccc2)CC(O)=C1Sc1nc(O)cc(C(F)(F)F)n1 (stereo not drawn) | > 100 µM | – | –
57 | O=C1CC(c2ccccc2)CC(O)=C1Sc1ccccc1Br (stereo not drawn) | 53 µM | – | –
58 | CSc1ccc(SC2=C(O)CC(c3ccccc3)CC2=O)cc1 (stereo not drawn) | > 100 µM | – | –
59 | Cc1ccc(SC2=C(O)CC(c3ccccc3)CC2=O)cc1C (stereo not drawn) | > 100 µM | – | –
60 | Cc1cccc(C)c1C1CC(=O)C(Sc2ccccc2C#N)=C(O)C1 (stereo not drawn) | 2.1 µM | 7.8 µM | –
61 | O=C1CC(c2ccccc2)CC(O)=C1Sc1cccc2ccccc12 (stereo not drawn) | > 100 µM | – | –
62 | N#Cc1ccccc1SC1=C(O)CC(c2ccccc2Cl)CC1=O (stereo not drawn) | 3.1 µM | 6.6 µM | –
63 | O=C1CC(c2ccccc2)CC(O)=C1Sc1ccc(F)cc1Cl (stereo not drawn) | 24 µM | – | –
64 | Cc1ccc(C)c(SC2=C(O)CC(c3ccccc3)CC2=O)c1 (stereo not drawn) | > 64 µM | – | –
65 | CS(=O)(=O)c1ccccc1SC1=C(O)CC(c2ccccc2)CC1=O (stereo not drawn) | > 100 µM | – | –
66 | N#Cc1ccccc1SC1=C(O)CC(c2c(Br)cccc2Br)CC1=O (stereo not drawn) | 0.18 µM | – | –
67 | O=C1CC(c2ccccc2)CC(O)=C1Sc1cc(Cl)ccc1Cl (stereo not drawn) | 12 µM | – | –
68 | COc1ccc(SC2=C(O)CC(c3ccccc3)CC2=O)cc1OC (stereo not drawn) | > 100 µM | – | –
69 | Cc1cc(C)cc(SC2=C(O)CC(c3ccccc3)CC2=O)c1 (stereo not drawn) | > 100 µM | – | –
70 | O=C1CC(c2ccccc2)CC(O)=C1Sc1cc(Cl)cc(Cl)c1 (stereo not drawn) | > 100 µM | – | –
71 | O=C1CC(c2c(Br)cccc2Br)CC(O)=C1Sc1ccccc1Cl (stereo not drawn) | 0.27 µM | 15 µM | –
72 | O=C1CC(c2ccccc2)CC(O)=C1Sc1ccccc1F (stereo not drawn) | 53 µM | – | –
73 | O=C1CC(c2ccccc2)CC(O)=C1Sc1ccccc1C(F)(F)F (stereo not drawn) | > 66 µM | – | –
74 | O=C1CC(c2ccccc2)CC(O)=C1Sc1cccc(C(F)(F)F)c1 (stereo not drawn) | > 100 µM | – | –
75 | Nc1cc(N)nc(SC2=C(O)CC(c3ccccc3)CC2=O)n1 (stereo not drawn) | > 100 µM | – | –
76 | O=C1CC(c2ccccc2)CC(O)=C1Sc1ccc(Br)cc1 (stereo not drawn) | > 100 µM | – | –
77 | Cc1ccc2nc(SC3=C(O)CC(c4ccccc4)CC3=O)[nH]c2c1 (stereo not drawn) | > 100 µM | – | –
78 | O=C1CC(c2ccc(Cl)cc2)CC(O)=C1Sc1ccccc1Cl (stereo not drawn) | 18 µM | – | 27 µM
79 | O=C1CC(c2ccccc2)CC(O)=C1Sc1nc2ccccc2s1 (stereo not drawn) | > 100 µM | – | –

Row | SMILES | IC50 [1] | IC50 [2] | Kd [3]
80 | O=C1CC(c2ccccc2)CC(O)=C1Sc1ccc(F)cc1F (stereo not drawn) | > 100 µM | – | –
81 | COc1ccc(OC)c(SC2=C(O)CC(c3ccccc3)CC2=O)c1 (stereo not drawn) | > 100 µM | – | –
82 | O=C1CC(c2ccccc2Cl)CC(O)=C1Sc1ccccc1Cl (stereo not drawn) | 5.6 µM | – | 8.2 µM
83 | O=C1CC(c2ccccc2)CC(O)=C1SCc1cccc(C(F)(F)F)c1 (stereo not drawn) | > 100 µM | – | –
84 | O=C1CC(c2ccccc2)CC(O)=C1Sc1ccc2ccccc2c1 (stereo not drawn) | > 100 µM | – | –
85 | N#Cc1ccccc1SC1=C(O)CC(c2cccc(Cl)c2)CC1=O (stereo not drawn) | 6.8 µM | > 10 µM | –
86 | O=C1CC(c2ccccc2)CC(O)=C1Sc1cccc(OC(F)(F)F)c1 (stereo not drawn) | > 100 µM | – | –
87 | O=C1CC(c2ccccc2)CC(O)=C1Sc1nc2ccc(Cl)cc2[nH]1 (stereo not drawn) | > 100 µM | – | –
88 | N#Cc1ccccc1SC1=C(O)CC(c2c(Cl)cccc2C(F)(F)F)CC1=O (stereo not drawn) | 0.64 µM | 2.8 µM | –
89 | O=C1CC(c2c(F)cccc2Cl)CC(O)=C1Sc1ccccc1Cl (stereo not drawn) | 3.7 µM | 5.3 µM | –
90 | N#Cc1ccccc1SC1=C(O)CC(c2ccc(Cl)cc2)CC1=O (stereo not drawn) | 17 µM | > 10 µM | –
91 | O=C1CC(c2ccccc2)CC(O)=C1Sc1ccc(C(F)(F)F)cc1 (stereo not drawn) | > 100 µM | – | –
92 | NS(=O)(=O)c1cccc(SC2=C(O)CC(c3ccccc3)CC2=O)c1 (stereo not drawn) | > 100 µM | – | –
93 | Cc1cc(C)c(SC2=C(O)CC(c3ccccc3)CC2=O)nc1C#N (stereo not drawn) | > 100 µM | – | –
94 | O=C1CC(c2c(F)cccc2F)CC(O)=C1Sc1ccccc1Cl (stereo not drawn) | 7.4 µM | 1.3 µM | –
95 | Nc1cccc(SC2=C(O)CC(c3ccccc3)CC2=O)c1 (stereo not drawn) | > 100 µM | – | –
96 | Cc1cccc(C)c1C1CC(=O)C(Sc2ccccc2Cl)=C(O)C1 (stereo not drawn) | 2.3 µM | 1.9 µM | –
97 | Nc1ccc2nc(SC3=C(O)CC(c4ccccc4)CC3=O)[nH]c2c1 (stereo not drawn) | > 100 µM | – | –
98 | O=C1CC(c2ccccc2)CC(O)=C1Sc1cccc(F)c1 (stereo not drawn) | > 100 µM | – | –
99 | O=C1CC(c2ccccc2)CC(O)=C1Sc1nc2ccccc2o1 (stereo not drawn) | > 100 µM | – | –
100 | O=C1CC(c2ccccc2)CC(O)=C1Sc1ccc(F)cc1 (stereo not drawn) | > 100 µM | – | –
101 | O=C1CC(c2ccccc2)CC(O)=C1Sc1cccc(Br)c1 (stereo not drawn) | > 100 µM | – | –
102 | Nc1ccc(SC2=C(O)CC(c3ccccc3)CC2=O)cc1 (stereo not drawn) | > 100 µM | – | –
